Assay results from ChEMBL document CHEMBL1125348, “The first mechanism-based inactivators for angiotensin-converting enzyme” (J Med Chem, 1992).

Key:
Type in all cases: protein assay
[1] = target: T1, Angiotensin-converting enzyme (Homo sapiens, UniProt P12821+Q9BYF1); experiment: Inhibition of hydrolysis of N-[3-(2-furyl)acryloyll-Phe-Gly-Gly7 by angiotensin I converting enzyme
[2] = target: T1, Angiotensin-converting enzyme; experiment: First order rate constant for angiotensin I converting enzyme
[3] = target: T1, Angiotensin-converting enzyme; experiment: kinact for angiotensin I converting enzyme
[4] = test system: N#CCC(=O)N[C@@H](Cc1ccccc1)C(=O)N[C@@H](Cc1ccccc1)C(=O)O; experiment: Km for angiotensin I converting enzyme

T1 sequence (P12821 whole entry, looked up): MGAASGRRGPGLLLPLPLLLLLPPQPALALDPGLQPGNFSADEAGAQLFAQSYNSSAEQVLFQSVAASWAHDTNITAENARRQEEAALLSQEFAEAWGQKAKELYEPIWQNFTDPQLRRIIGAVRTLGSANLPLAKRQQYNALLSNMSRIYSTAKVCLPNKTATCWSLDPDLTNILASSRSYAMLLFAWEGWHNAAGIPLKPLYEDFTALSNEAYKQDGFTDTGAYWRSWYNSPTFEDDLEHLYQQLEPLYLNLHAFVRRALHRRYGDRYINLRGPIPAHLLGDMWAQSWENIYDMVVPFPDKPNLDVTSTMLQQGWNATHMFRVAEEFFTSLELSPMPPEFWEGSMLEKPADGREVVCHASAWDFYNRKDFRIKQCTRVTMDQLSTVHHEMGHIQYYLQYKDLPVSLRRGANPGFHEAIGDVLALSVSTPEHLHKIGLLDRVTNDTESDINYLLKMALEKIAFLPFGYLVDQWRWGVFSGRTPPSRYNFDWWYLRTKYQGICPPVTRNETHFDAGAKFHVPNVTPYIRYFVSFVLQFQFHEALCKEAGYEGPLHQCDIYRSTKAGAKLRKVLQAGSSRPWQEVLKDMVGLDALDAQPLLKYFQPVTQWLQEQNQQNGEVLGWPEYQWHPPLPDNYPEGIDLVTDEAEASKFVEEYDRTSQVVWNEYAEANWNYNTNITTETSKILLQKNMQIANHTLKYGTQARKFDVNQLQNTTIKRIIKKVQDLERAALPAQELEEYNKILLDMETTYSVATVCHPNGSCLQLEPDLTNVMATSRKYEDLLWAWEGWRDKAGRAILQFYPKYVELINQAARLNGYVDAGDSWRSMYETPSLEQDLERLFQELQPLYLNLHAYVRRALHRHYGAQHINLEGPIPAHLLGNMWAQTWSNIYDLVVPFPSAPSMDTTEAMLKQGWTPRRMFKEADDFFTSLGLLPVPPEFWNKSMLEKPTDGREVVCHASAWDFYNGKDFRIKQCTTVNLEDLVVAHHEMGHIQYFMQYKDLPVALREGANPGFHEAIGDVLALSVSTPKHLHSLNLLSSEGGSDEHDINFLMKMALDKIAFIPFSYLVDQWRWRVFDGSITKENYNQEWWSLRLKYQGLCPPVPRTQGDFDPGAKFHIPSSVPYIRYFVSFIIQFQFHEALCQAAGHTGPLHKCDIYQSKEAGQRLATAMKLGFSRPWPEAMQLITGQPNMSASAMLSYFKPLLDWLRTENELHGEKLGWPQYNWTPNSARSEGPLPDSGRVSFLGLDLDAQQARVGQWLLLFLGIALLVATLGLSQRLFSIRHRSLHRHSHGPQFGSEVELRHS
T1 sequence (Q9BYF1 whole entry, looked up): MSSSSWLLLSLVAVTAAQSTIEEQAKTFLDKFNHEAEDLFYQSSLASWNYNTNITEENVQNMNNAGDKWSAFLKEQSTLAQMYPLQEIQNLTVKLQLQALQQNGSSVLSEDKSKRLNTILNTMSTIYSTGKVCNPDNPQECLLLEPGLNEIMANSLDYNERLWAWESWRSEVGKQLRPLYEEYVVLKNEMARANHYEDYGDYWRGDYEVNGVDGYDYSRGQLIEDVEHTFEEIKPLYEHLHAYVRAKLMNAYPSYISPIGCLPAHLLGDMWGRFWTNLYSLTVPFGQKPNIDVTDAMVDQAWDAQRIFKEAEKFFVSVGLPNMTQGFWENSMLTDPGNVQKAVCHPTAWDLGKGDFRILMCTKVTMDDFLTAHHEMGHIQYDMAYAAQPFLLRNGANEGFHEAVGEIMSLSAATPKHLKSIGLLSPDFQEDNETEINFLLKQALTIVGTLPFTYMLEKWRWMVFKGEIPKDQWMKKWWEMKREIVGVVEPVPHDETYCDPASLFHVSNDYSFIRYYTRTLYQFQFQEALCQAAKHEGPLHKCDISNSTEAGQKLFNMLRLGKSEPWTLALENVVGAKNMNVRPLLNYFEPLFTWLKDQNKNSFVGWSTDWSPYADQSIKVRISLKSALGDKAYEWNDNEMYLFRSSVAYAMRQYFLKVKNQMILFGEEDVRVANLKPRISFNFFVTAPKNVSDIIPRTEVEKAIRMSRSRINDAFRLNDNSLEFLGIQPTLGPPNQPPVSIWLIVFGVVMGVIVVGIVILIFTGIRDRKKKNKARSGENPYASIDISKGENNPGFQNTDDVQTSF
Chain of Angiotensin-converting enzyme (Homo sapiens) (Q9BYF1 whole entry, looked up): as above
Chain of Angiotensin-converting enzyme (Homo sapiens) (P12821 whole entry, looked up): as the sequence (P12821 whole entry, looked up) above

Row | Ki [1] | k obs [2] | K inact [3] | Molecule | Km [4]
1 | 65 µM | 0.000835 s⁻¹ | 0.08 min⁻¹ | N#CCC(=O)N[C@@H](Cc1ccccc1)C(=O)N[C@@H](Cc1ccccc1)C(=O)O | –
2 | – | 0.000501 s⁻¹ | – | CC(C)C[C@H](NC(=O)[C@H](C)NC(=O)CC#N)C(=O)O | –
3 | – | – | – | Angiotensin-converting enzyme (Homo sapiens) (from UniProt P12821+Q9BYF1) | 10.5 mM
4 | – | 0.000251 s⁻¹ | – | C[C@H](NC(=O)CC#N)C(=O)N[C@@H](Cc1ccccc1)C(=O)O | –
